For series [1], the target named is native RBP4 purified from human urine (Homo sapiens (Human), UniProt P02753). Description: RBP4 scintillation proximity (SPA) binding assay. Conditions: read-out: RBP4 SPA IC50; fixed 10 nM 3H-retinol. (SPA uses beads or plates that emit light when radiolabelled molecules are held near them.)
The nature of another series: Kinetic solubility assay. The series is classed as physicochemical. As to conditions: PBS pH 7.4.
For series [2] the following is noted: CD-1 mice.
For the next series, the system named is serum RBP4. Put plainly: Serum RBP4 measurement after single oral dose in mice (PK-PD). The class given is in vivo, mouse. As for the experimental part: FIG. 6. Pharmacokinetic and pharmacodynamic properties of 18a in mice. […]. Data are presented as means±SD. Three mice per treatment group were used in the PK-PD study.
Blood samples were collected from a tail vein. Whole blood was drawn into a centrifuge tube and was allowed to clot at room temperature for 30 minutes followed by centrifugation at 2000 g for 15 minutes at […] to collect serum. […] Whole blood was drawn into a centrifuge tube and was allowed to clot at room temperature for 30 min followed by centrifugation at 2000 g for 15 min at +4° C to collect serum.
There was no effect of compound dosing on serum TTR levels (data not shown). […].

The nature of series [3]: Metabolic stability and clearance in rat liver microsomes. The series is classed as in vitro ADME. As for the experimental part: (§1) The results of metabolic stability determinations for novel compounds and testosterone (positive control) were conducted in the presence of human, rat, mouse, and monkey liver microsomes. Values shown are percent of parent remaining after a 30 minute incubation. All measurements were done in duplicate. Assay results for testosterone were within an acceptable range.
(§2) Mixed-gender human liver microsomes (Lot# 1710084), male Sprague-Dawley rat liver microsomes (Lot# 1610290), male CD-1 mouse liver microsomes (Lot# 1710069), and male Cynomolgous liver microsomes (Lot# 1510193) were purchased from XenoTech. […]. The test article was added into the reaction mixture at a final concentration of 1 μM. The control compound, testosterone, was run simultaneously with the test article in a separate reaction. An aliquot of the reaction mixture (without cofactor) was equilibrated in a shaking water bath at 37° C. for 3 minutes. The reaction was initiated by the addition of cofactor, and the mixture was incubated in a shaking water bath at 37° C. Aliquots (100 μL) were withdrawn at 0, 10, 20, 30, and 60 minutes. Test article and testosterone samples were immediately combined with 400 μL of ice-cold 50/50 acetonitrile (ACN)/H2O containing 0.1% formic acid and internal standard to terminate the reaction. […] Half-lives were calculated using GraphPad software, fitting to a single-phase exponential decay equation.
In general terms: Microsomes from liver hold many membrane-bound enzymes, among them those of drug oxidation.

The next series can be described thus: in vivo. As to conditions: male, CD-1, mouse.
The next series addresses CYP2C19 (Homo sapiens (Human), UniProt P33261). Put plainly: CYP450 inhibition assay, CYP2C19. The class given is in vitro ADME. As to conditions: pH 7.4, read-out: CYP Inhibition (% Inhibition at 10 μm) 2C19.
Series [4] in a line: Plasma protein binding, human. The series is classed as in vitro ADME. The source says:
The peak areas of the test compound in the buffer and test samples were used to calculate percent binding and recovery according to the following formulas:
Areap=Peak area of analyte in protein matrix Areab=Peak area of analyte in buffer Areac=Peak area of analyte in control sample

The nature of series [5]: Metabolic stability and clearance in human liver microsomes. The series is classed as in vitro ADME. As for the experimental part:
as §1, §2

The target of series [6] is peroxisome proliferator-activated receptor-gamma (PPARγ) receptor (Homo sapiens (Human), UniProt P37231). Put plainly: PPARγ activity.
A further series has as its target CYP2C9 (Homo sapiens (Human), UniProt P11712). Put plainly: CYP450 inhibition assay, CYP2C9. The series is classed as in vitro ADME.
The target of another series is CYP2D6 (Homo sapiens (Human), UniProt P10635).
The nature of series [7]: Metabolic stability and clearance in mouse liver microsomes. The series is classed as in vitro ADME. As to the method: as §1, §2
A short description of series [8]: Metabolic stability and clearance in cynomolgus monkey liver microsomes. The series is classed as in vitro ADME. As to the method:
as §1, §2

The target of series [9] is TTR isolated from human plasma (Homo sapiens (Human), UniProt P02766). Put plainly: Fluorescence polarization TTR tetramer binding assay. As to conditions: fixed 25 μM FITC-coupled TTR FP probe. (Polarisation of emitted light reports the rotation of a fluorescent probe.)
The target of another series is human TTR (Homo sapiens (Human), UniProt P02766). Description: Low pH-induced TTR aggregation assay (SDS-PAGE/Western blot). The class given is biochemical. Conditions: 50 μM compound, pH 4.0, 72 h, 37° C. As to the method: FIG. 5. […]. Bar graphs represent pixel volume means±S.D. of the scanned bands on the immunoblots in arbitrary units for TTR high-molecular-weight aggregates (B), dimers (C), and monomers (D). Statistical significance was determined by one-way ANOVA with Holm-Sidak post hoc test; *, p≤0.05**, p≤0.01***, p≤0.001; ****, p≤0.0001 compared to TTR aggregation+DMSO group (pH4.0) *, p=0.05, **, p≤0.01; ***, p≤0.001; ****, […] compare to TTR without aggregation group (pH=7.5).
The ability of test compounds to prevent TTR aggregation was evaluated under the acidic conditions that favor TTR aggregation and fibril formation. […] At the end of the incubation, 3.5 μl 500 mM sodium phosphate (Sigma #S5136) buffer (pH=8.0) was added to each sample for neutralization and 0.6 μl 5% CHAPS (Sigma #C5070) as a detergent to prevent reassociation of protein. The cross-linking was performed by adding 1.5 μl 5% glutaraldehyde solution (Sigma# G6257). After 4 min, the reaction was stopped by the addition of 2.5 μl freshly made 5% NaBH4. […] Band intensity for TTR monomer and TTR aggregates was quantified from scanned images of the blots.
The ability of TTR ligands to act as kinetic stabilizers of TTR tetramers was assessed in vitro using a low pH-induced TTR aggregation SDS-PAGE assay (Coelho, T. et al. 2016; Cruz, M. W. 2019). […]

The conditions of series [10]: 441 ATTR-CM patients; cited from earlier work.

For orientation: IC50 means the concentration that inhibits the measured activity by half. By Vss is commonly meant the apparent volume that relates the amount in the body to the concentration in plasma or blood. By microsomal CLint is commonly meant the rate of metabolic loss divided by the concentration. As a reminder, the clearance is a measure of how efficiently the substance is removed, as volume per time. The half-life is the time needed for the level to fall by half in the phase considered. Usually AUC(0-inf) stands for the area under the concentration-time curve extrapolated to infinity. As usually defined, the Cmax is the highest concentration seen after dosing. By inhibition is commonly meant how much of the control response was suppressed. One may read the EC50 as the concentration giving half of the maximal effect.

Where two headings read alike, the source gives them in different places.

Chain of peroxisome proliferator-activated receptor-gamma (PPARγ) receptor (P37231 whole entry, species assumed): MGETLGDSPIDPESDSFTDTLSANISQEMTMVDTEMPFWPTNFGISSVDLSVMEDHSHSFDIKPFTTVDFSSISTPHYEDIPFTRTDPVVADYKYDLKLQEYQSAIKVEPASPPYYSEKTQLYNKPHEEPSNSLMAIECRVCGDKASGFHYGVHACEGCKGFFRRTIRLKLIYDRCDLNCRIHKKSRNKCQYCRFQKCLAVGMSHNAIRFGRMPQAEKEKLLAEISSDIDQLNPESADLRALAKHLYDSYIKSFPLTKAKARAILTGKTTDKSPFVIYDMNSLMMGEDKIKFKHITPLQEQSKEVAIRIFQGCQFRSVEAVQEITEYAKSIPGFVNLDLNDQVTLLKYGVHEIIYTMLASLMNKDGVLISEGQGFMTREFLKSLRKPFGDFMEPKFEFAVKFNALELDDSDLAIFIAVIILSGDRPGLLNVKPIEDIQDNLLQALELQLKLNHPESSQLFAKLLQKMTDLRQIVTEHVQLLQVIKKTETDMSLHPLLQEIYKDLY
Chain of CYP2C19 (P33261 whole entry): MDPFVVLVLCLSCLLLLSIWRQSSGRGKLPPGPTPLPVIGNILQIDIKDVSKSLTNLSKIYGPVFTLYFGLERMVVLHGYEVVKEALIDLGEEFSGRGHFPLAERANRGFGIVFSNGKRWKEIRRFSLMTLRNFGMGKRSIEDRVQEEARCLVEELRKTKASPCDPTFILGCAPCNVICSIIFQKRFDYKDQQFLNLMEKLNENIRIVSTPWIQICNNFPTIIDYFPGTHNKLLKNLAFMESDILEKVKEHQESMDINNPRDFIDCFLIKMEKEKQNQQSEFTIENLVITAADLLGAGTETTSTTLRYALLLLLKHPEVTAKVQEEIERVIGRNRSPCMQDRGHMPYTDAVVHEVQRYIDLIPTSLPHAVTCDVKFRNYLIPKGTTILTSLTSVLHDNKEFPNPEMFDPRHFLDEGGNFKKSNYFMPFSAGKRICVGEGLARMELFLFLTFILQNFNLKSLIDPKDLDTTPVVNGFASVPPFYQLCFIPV
Chain of CYP2D6 (P10635 whole entry): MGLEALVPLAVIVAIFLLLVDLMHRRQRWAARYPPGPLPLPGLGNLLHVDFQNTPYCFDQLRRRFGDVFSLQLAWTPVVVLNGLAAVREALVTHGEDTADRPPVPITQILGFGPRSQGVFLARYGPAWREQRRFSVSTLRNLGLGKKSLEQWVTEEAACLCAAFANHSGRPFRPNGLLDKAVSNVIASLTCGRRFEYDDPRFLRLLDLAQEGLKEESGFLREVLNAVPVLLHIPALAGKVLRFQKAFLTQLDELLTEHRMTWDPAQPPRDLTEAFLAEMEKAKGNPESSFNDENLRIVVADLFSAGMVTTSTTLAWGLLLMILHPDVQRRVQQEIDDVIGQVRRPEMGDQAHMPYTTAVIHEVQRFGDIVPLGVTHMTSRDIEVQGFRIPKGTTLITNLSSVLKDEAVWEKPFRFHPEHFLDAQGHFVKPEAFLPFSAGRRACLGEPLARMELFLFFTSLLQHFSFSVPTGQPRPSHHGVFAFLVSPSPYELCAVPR
Chain of CYP2C9 (P11712 whole entry): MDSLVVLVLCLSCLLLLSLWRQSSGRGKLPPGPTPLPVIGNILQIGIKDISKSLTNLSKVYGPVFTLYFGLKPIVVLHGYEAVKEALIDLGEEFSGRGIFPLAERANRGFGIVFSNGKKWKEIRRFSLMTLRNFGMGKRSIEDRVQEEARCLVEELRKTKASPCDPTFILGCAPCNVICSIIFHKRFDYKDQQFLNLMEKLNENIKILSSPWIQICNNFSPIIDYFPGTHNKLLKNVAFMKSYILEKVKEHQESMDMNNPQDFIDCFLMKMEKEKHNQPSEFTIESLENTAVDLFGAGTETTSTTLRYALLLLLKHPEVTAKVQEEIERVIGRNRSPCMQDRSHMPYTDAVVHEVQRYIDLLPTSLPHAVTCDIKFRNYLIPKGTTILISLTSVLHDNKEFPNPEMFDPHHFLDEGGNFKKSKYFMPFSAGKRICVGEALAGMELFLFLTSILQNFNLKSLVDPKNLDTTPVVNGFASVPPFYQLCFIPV

As for `Cc1n[nH]c(C)c1CCCOc1cc(C(=O)O)ccc1F` [AG10 (4), AG10, reference compound], the IC50 in [1] was greater than 30000 nM.

With `Cc1n[nH]c(C)c1N1CCN(c2cc(C(=O)O)ccc2F)CC1` [Compound 18a, 3-(4-(3,5-Dimethyl-1H-pyrazol-4-yl)piperazin-1-yl)-4-fluorobenzoic Acid], the Kinetic solubility in “Kinetic solubility assay” was found to be 184.5 µM. For the same molecule, in series [2] (IV 2 mg/kg), the AUCINF amounted to 6242 ng·h/mL; the AUClast came out at 6214 ng·h/mL; the “CL, total body clearance” value turned out to be 5.9 mL/min/kg; the volume of distribution (Vss) is given as 2.18 L/kg. In series [2] (IV 2 mg/kg), this molecule gave a t1/2 of 5.08 h. For the same molecule, in series [2] (PO 5 mg/kg vs IV 2 mg/kg), the “% F, oral bioavailability” value was 103%. In series [2] (PO 5 mg/kg), the AUCINF is 16073 ng·h/mL, the AUClast stood at 16040 ng·h/mL and the t1/2 came out at 5.38 h. Also, the “effect on serum TTR levels” value in the series with serum RBP4 (after compound dosing, data not shown) is on record as “no effect”. Moreover, in the series with serum RBP4 (single 25 mg/kg oral dose, 2 h after administration), the “maximal reduction in serum RBP4” value was found to be 66%. The “Liver Microsomal Stability (% remaining at 30 min) RLM” value in [3] (30 minute incubation) is listed as 98%. In [3] (male, Sprague-Dawley, rat liver microsomes), the microsomal CLint at 1 μM was less than 0.0231 µL/min/mg. In the series “in vivo” (iv, 2 mg/kg), the clearance was 5.9 mL/min/kg and the half-life is 5.08 h. Also, in “in vivo” (po, 5 mg/kg), the area under the curve AUC(0-inf) turned out to be 16100 ng·h/mL and the Cmax turned out to be 1560 ng/mL. Moreover, the inhibition at 10 µM on CYP2C19 was 3.1%. The “% PPB human” value in series [4] is reported as 83%. Moreover, the “Liver Microsomal Stability (% remaining at 30 min) HLM” value in [5] (30 minute incubation) is reported as 93%. In addition, in series [5] (both sexes, human liver microsomes), the intrinsic metabolic clearance (microsomal CLint) at 1 μM is less than 0.0231 µL/min/mg. The same molecule came in with an EC50 in [6] greater than 100000 nM. The “CYP Inhibition (% Inhibition at 10 μm) 2C9” value at CYP2C9 is on record as 2C9 - 10.4%. Further, at CYP2D6, the “CYP Inhibition (% Inhibition at 10 μm) 2D6” value came to 2D6 - 8.1%. The “Liver Microsomal Stability (% remaining at 30 min) MLM” value in series [7] (30 minute incubation) is 102%. In series [7] (male, CD-1, mouse liver microsomes), this molecule gave a microsomal CLint at 1 μM of less than 0.0231 µL/min/mg. Also, in series [8] (30 minute incubation), the “Liver Microsomal Stability (% remaining at 30 min) cyno LM” value came out at 94%. Moreover, the microsomal CLint at 1 μM in series [8] (male, cynomolgus monkey liver microsomes, read-out: Microsomal CLint, cyno) was less than 0.0231 µL/min/mg.

As to `Cc1n[nH]c(C)c1N1CCN(c2cccc(C(=O)O)c2)CC1` [Compound 18b, 3-(4-(3,5-Dimethyl-1H-pyrazol-4-yl)piperazin-1-yl)benzoic Acid], the IC50 in series [1] was greater than 30000 nM.

In the case of `COc1ccc(C(=O)O)cc1N1CCN(c2c(C)n[nH]c2C)CC1` [Compound 18c, 3-(4-(3,5-Dimethyl-1H-pyrazol-4-yl)piperazin-1-yl)-4-methoxybenzoic Acid], the IC50 is greater than 3000 nM in series [1] and 300 nM in [9].

`Cc1ccc(C(=O)O)cc1N1CCN(c2c(C)n[nH]c2C)CC1` [Compound 18d, 3-(4-(3,5-Dimethyl-1H-pyrazol-4-yl)piperazin-1-yl)-4-methylbenzoic Acid]: in series [1], the IC50 is greater than 3000 nM.

As to `Cc1n[nH]c(C)c1N1CCN(c2cc(C(=O)O)ccc2C(F)(F)F)CC1` [Compound 18e, 3-(4-(3,5-Dimethyl-1H-pyrazol-4-yl)piperazin-1-yl)-4-(trifluoromethyl)benzoic Acid], the IC50 in [1] is greater than 3000 nM.

Regarding `Cc1n[nH]c(C)c1N1CCN(c2cc(C(=O)O)ccc2Cl)CC1` [Compound 18f, 4-Chloro-3-(4-(3,5-dimethyl-1H-pyrazol-4-yl)piperazin-1-yl)benzoic Acid], the IC50 in series [1] is greater than 3000 nM.

As to `Cc1n[nH]c(C)c1N1CCN(c2cccc(C(=O)O)c2F)CC1` [Compound 18g, 3-(4-(3,5-Dimethyl-1H-pyrazol-4-yl)piperazin-1-yl)-2-fluorobenzoic Acid], the IC50 in series [1] was greater than 3000 nM.

For the molecule `Cc1n[nH]c(C)c1N1CCN(c2ccc(F)c(C(=O)O)c2)CC1` [Compound 18h, 5-(4-(3,5-Dimethyl-1H-pyrazol-4-yl)piperazin-1-yl)-2-fluorobenzoic Acid], the IC50 in series [1] was greater than 3000 nM.

`Cc1n[nH]c(C)c1N1CCN(c2cc(F)cc(C(=O)O)c2)CC1` [Compound 18i, 3-(4-(3,5-Dimethyl-1H-pyrazol-4-yl)piperazin-1-yl)-5-fluorobenzoic Acid]: in series [1], the IC50 is greater than 3000 nM.

As for `Cc1cc(F)c(N2CCN(c3c(C)n[nH]c3C)CC2)cc1C(=O)O` [Compound 18j, 5-(4-(3,5-Dimethyl-1H-pyrazol-4-yl)piperazin-1-yl)-4-fluoro-2-methylbenzoic Acid], the IC50 in series [1] is greater than 3000 nM.

`Cc1noc(C)c1N1CCN(c2cc(C(=O)O)ccc2F)CC1` [Compound 20, 3-(4-(3,5-Dimethylisoxazol-4-yl)piperazin-1-yl)-4-fluorobenzoic Acid]: in series [1], the 50% inhibitory concentration (IC50) is greater than 3000 nM.

`Cc1n[nH]c(C)c1N1CCN(c2cc(C(N)=O)ccc2F)CC1` [Compound 21, 3-(4-(3,5-Dimethyl-1H-pyrazol-4-yl)piperazin-1-yl)-4-fluorobenzamide]: the IC50 in series [1] is greater than 3000 nM.

Regarding `Cc1n[nH]c(C)c1N1CCN(c2cc(-c3nn[nH]n3)ccc2F)CC1` [Compound 22, 1-(3,5-Dimethyl-1H-pyrazol-4-yl)-4-(2-fluoro-5-(2H-tetrazol-5-yl)phenyl)piperazine], the IC50 in [1] was greater than 3000 nM.

As to `CC/C(=C(/CC)c1ccc(O)cc1)c1ccc(O)cc1` [Diethylstilbesterol], the Kinetic solubility in “Kinetic solubility assay” was found to be 7.0 µM.

`CC(=O)N1CCN(c2ccc(OCC3COC(Cn4ccnc4)(c4ccc(Cl)cc4Cl)O3)cc2)CC1` (stereo not shown) [Ketoconazole] had a Kinetic solubility in “Kinetic solubility assay” of 152.8 µM.

Turning to `O=C(O)c1ccc2nc(-c3cc(Cl)cc(Cl)c3)oc2c1` [Tafamadis (3), tafamidis], the IC50 in series [1] is greater than 30000 nM. Further, the “formation of high molecular weight forms of TTR” value on human TTR is “significantly inhibited”. In addition, in series [10], the “reduction of rate of cardiovascular-related hospitalizations compared to placebo” value is reported as 32% and the “reduction of risk of death compared to placebo” value is 30%.

The values are drawn from patent US20240150297A1, “NOVEL COMPOUNDS COMPRISING A NEW CLASS OF TRANSTHYRETIN LIGANDS FOR TREATMENT OF COMMON AGE-RELATED COMORBIDITIES” (The Trustees of Columbia University in the City of New York, priority 2021, published 2024).
